# Results from patent US6339102B1, “Method and composition for treating and preventing retinal damage” (The United States of America as represented by the …, priority 1999, dated 2002).
# Like-named read-outs stand apart in the source and are kept apart here.
# Key:
# [1] = tested on: dissociated retinal cells; assay: MTT viability of dissociated retinal cells exposed to NaCN and 2-deoxyglucose (simulated ischemia); type: cell-based, rabbit; conditions: NaCN and 2-DG giving approximately 60% toxicity, p<0.004
# [2] = tested on: cultured neurons; assay: MTT neuroprotection assay in cultured neurons after H2O2 oxidative insult; type: cell-based; conditions: for % Neuroprotection: 4 h pre-treatment, 50 μM H2O2 30 min, MTT after 24 h, mean±SEM
# Description: In a separate series of experiments, cultured neurons were pre-treated with four different concentrations of DHL with or without 10 mM SPBN for four hours. At the conclusion of the preincubation period, an oxidative insult was applied by adding 50 μM of hydrogen peroxide (H2O2) for an additional 30 min. Medium containing the H2O2 and antioxidants was then removed and Minimum Essential Medium (MEM) was added to the wells for 24 hours. Neuroprotection was then assessed by conducting the calorimetric MTT assay. One way ANOVA with significance of differences between means assessed by Tukey-Kramer Multiple Comparisons test.
# Data are depicted as means±SEM (n=8). Significance was determined by one way ANOVA, and differences between the means was assessed by the Tukey-Kramer test. (See table 1).
# [3] = tested on: traumatic brain injury; conditions: administered either 15 minutes prior or 30 minutes post injury; preliminary studies; cited from earlier work
# [4] = tested on: focal ischemia; conditions: rat; temporary model: given 3 hours or even 5 hours after start of recirculation; cited from earlier work
# [5] = tested on: ferrous chloride; conditions: mice, intracerebral lethal injection of ferrous chloride; cited from earlier work
# [6] = tested on: cortical contusion; conditions: rat; cited from earlier work
# [7] = tested on: focal ischemia; conditions: initiation of treatment delayed as long as 12 hours; cited from earlier work
# [8] = cited from earlier work
# [9] = in vivo; cited from earlier work
# [10] = tested on: striatal lesions; conditions: 100 mg/kg i.p. 30 min prior and q 8 hours for 48 hours after insult; or 300 mg/kg ip repeated; cited from earlier work
# [11] = Aldrich catalog description; cited from earlier work
# [12] = tested on: retinal ganglion cells; conditions: 500 ng by intraocular injection; Klocker et al.; cited from earlier work
# [13] = tested on: lesions of striatum; conditions: rats; cited from earlier work
# [14] = tested on: ischemia-perfusion injury; conditions: rat; cited from earlier work
# [15] = tested on: ischemia-perfusion injury; conditions: gerbil; cited from earlier work
# [16] = in vivo; cited from earlier work; remark: listed apart in the source
compound,measurement,setting,value
"O=C(O)CCCC[C@@H](S)CCS (racemic) [DHL, dihydrolipoic acid]",protection against damage from NaCN and 2-DG (maximum effect),[1]; DHL 0.3 millimolar co-administered,approximately 60%
same,Emax,"[1]; Oryctolagus cuniculus, DHL 0.1 millimolar co-administered, read-out: protection against damage from NaCN and 2-DG (maximum effect)",~60%
same,% Neuroprotection,[2]; DHL 3 μM,1.31 ± 5.23%
same,% Neuroprotection,[2]; DHL 10 μM,−3.68 ± 5.14%
same,% Neuroprotection,[2]; DHL 30 μM,7.04 ± 7.38%
same,% Neuroprotection,[2]; DHL 100 μM,28.48 ± 5.83%
CC(C)(C)[N+]([O-])=Cc1ccc(S(=O)(=O)[O-])cc1S(=O)(=O)[O-].[Na+].[Na+] [NXY-059],volume of necrosis after traumatic brain injury,[3],effective in decreasing volume of necrosis
same,efficacy in temporary and permanent focal ischemia,[4],effective
"CC(C)(C)[N+]([O-])=Cc1ccccc1 [PBN, α-Phenyl-N-tert-butylnitrone]",seizures and time to death after ferrous chloride,[5],minimized seizures and delayed time to death
same,accumulation of lactate following cortical contusion,[6],attenuate
same,neuroprotection in rat focal ischemia model,[7],neuroprotective
same,toxicity,[8]; in high concentrations,somewhat toxic
same,toxicity,[8]; very high doses,toxicity is a problem
same,blood brain barrier crossing,[9],crosses the blood brain barrier
"CC(C)(C)[N+]([O-])=Cc1ccccc1S(=O)(=O)O [SPBN, N-tert-Butyl-α-[2-sulfophenyl]-nitrone]",protection against striatal toxin lesions (lesion volume),[10],protective
same,water solubility,[11],water-soluble
same,retinal ganglion cells rescued after axotomy,[12],27%
same,effect of SPBN on the neuroprotective efficacy of DHL,"[2]; 10 mM SPBN, at three of the four DHL concentrations tested",significantly increased
"O=C(O)CCCCC1CCSS1 (stereo not drawn) [αLA, Alpha-lipoic acid]",efficacy against NMDA and malonic acid lesions of striatum,[13],effective
same,neuroprotection against ischemia-perfusion injury,[14],neuro-protective
same,neuroprotection against ischemia-perfusion injury,[15],neuro-protective
same,clinical safety,[16],clinically safe
